Measurements reported in patent US12383633B1, “Injectable formulations of PARP inhibitors and uses thereof” (ZYMERON CORPORATION, priority 2024, dated 2025).
Read-outs that look alike come from different tables or passages of the source.

Key:
[1] = direct injection of 30-40% (w/v), preclinical studies; cited from earlier work
[2] = cited from earlier work
[3] = format: physicochemical
Protocol: (§1) Sulfobutylether-β-cyclodextrin-enabled olaparib solubility enhancement experiments were conducted at various olaparib and sulfobutylether-β-cyclodextrin concentrations (FIG. 5). The dissolved quantity of olaparib increased when the concentration of sulfobutylether-β-cyclodextrin increased, indicating the formation of a 1:1 complex between the drug and solubilizer. The apparent complexation constant (K1:1) was calculated to be 432.4 M^−1 at 22° C.
This would be equivalent to >10 and >50 molar and weight ratios, respectively.
as §1, with “rucaparib” for “olaparib”, “6).” for “5).”, “596.7” for “432.4”

[4] = Protocol: (§2) 2.5 mL solutions of each excipient with each concentration were prepared by serial dilution of the saturated solution. One vial for each excipient experiment was prepared with 2.5 ml water. To each vial, 50 mg olaparib was added, sonicated, vortexed, and shaken at 40° C. for over 20 hr. After agitation at 25° C., the suspensions were filtered to obtain clear solutions. The clear solutions were analyzed using HPLC.
as §2, with “600 mg/mL” for “saturated”, “mL” for “ml”, “hours.” for “hr.”

| apparent complexation constant (K1:1) [3] | Solubility Enhancement Factor [4] | olaparib water solubility improvement by excipient [4] | Compound | also measured |
| --- | --- | --- | --- | --- |
|  |  |  | sulfobutylether-β-cyclodextrin [Sulfobutylether β-cyclodextrin] | hypertonicity-related adverse effects [1]: did not lead to any hypertonicity-related adverse effects |
| 432.4 M⁻¹ |  |  | O=C(c1cc(Cc2n[nH]c(=O)c3ccccc23)ccc1F)N1CCN(C(=O)C2CC2)CC1 [olaparib] | water solubility [2]: < 0.07 mg/mL; equivalent weight ratio sulfobutylether-β-cyclodextrin to olaparib ([3]; to achieve 5 mg/ml olaparib): > 50 |
|  | 10 | 10 fold | OC[C@H]1O[C@@H]2O[C@H]3[C@H](O)[C@@H](O)[C@@H](O[C@H]4[C@H](O)[C@@H](O)[C@@H](O[C@H]5[C@H](O)[C@@H](O)[C@@H](O[C@H]6[C@H](O)[C@@H](O)[C@@H](O[C@H]7[C@H](O)[C@@H](O)[C@@H](O[C@H]8[C@H](O)[C@@H](O)[C@@H](O[C@H]1[C@H](O)[C@H]2O)O[C@@H]8CO)O[C@@H]7CO)O[C@@H]6CO)O[C@@H]5CO)O[C@@H]4CO)O[C@@H]3CO [β-cyclodextrin] |  |
| 596.7 M⁻¹ |  |  | CNCc1ccc(-c2[nH]c3cc(F)cc4c3c2CCNC4=O)cc1 [rucaparib] | water solubility ([2]; across the physiological pH range): around 1 mg/mL |
|  | 1 |  | OC[C@@H](O)[C@@H](O)[C@H](O)[C@H](O)CO [D-mannitol] | saturated water solubility ([2]; 25° C.): 216 mg/mL |
|  | 324 | more than 100 fold | CC(O)COC[C@H]1O[C@@H]2O[C@H]3[C@H](O)[C@@H](O)[C@@H](O[C@H]4[C@H](O)[C@@H](O)[C@@H](O[C@H]5[C@H](O)[C@@H](O)[C@@H](O[C@H]6[C@H](O)[C@@H](O)[C@@H](O[C@H]7[C@H](O)[C@@H](O)[C@@H](O[C@H]8[C@H](O)[C@@H](O)[C@@H](O[C@H]1[C@H](O)[C@H]2O)O[C@@H]8COCC(C)O)O[C@@H]7COCC(C)O)O[C@@H]6COCC(C)O)O[C@@H]5COCC(C)O)O[C@@H]4COCC(C)O)O[C@@H]3COCC(C)O (stereo partly drawn) [HP-β-cyclodextrin, 2-hydroxypropyl-β-cyclodextrin] |  |
